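1) Cells in 96-well plates. 2) Compound, 48 h, 5 concentrations. 3) Linear interpolation between surrounding doses. 4) Unreached endpoint = highest concentration. Here, GI50 denotes the concentration required for 50% inhibition of growth. TGI marks complete inhibition of growth.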
Assays:
Experiment in all cases: inhibition of tumour cell growth, NCI panel, 48 h
A549 NSCLC = tested on: A549 NSCLC
NCI-H23 lung = tested on: NCI-H23 lung
SF-539 CNS = tested on: SF-539 CNS
U251 CNS = tested on: U251 CNS
OVCAR-3 ovarian = tested on: OVCAR-3 ovarian
SR leukemia = tested on: SR leukemia
MOLT-4 leukemia = tested on: MOLT-4 leukemia
EKVX NSCLC = tested on: EKVX NSCLC
TK-10 renal = tested on: TK-10 renal
LOX IMVI melanoma = tested on: LOX IMVI melanoma

SMILES	GI50 (A549 NSCLC)	TGI (A549 NSCLC)	GI50 (NCI-H23 lung)	TGI (NCI-H23 lung)	GI50 (SF-539 CNS)	TGI (SF-539 CNS)	GI50 (U251 CNS)	TGI (U251 CNS)	GI50 (OVCAR-3 ovarian)	TGI (OVCAR-3 ovarian)	GI50 (SR leukemia)	TGI (SR leukemia)	GI50 (MOLT-4 leukemia)	TGI (MOLT-4 leukemia)	GI50 (EKVX NSCLC)	TGI (EKVX NSCLC)	GI50 (TK-10 renal)	TGI (TK-10 renal)	GI50 (LOX IMVI melanoma)	TGI (LOX IMVI melanoma)
COc1ccccc1N1CCN(CCCOc2ccc(C(=O)/C=C3/C(=O)Nc4ccccc43)cc2)CC1	22.1 µM	> 100 µM	6.19 µM	38.6 µM	15.8 µM	40.4 µM	15.4 µM	63.7 µM	7.37 µM	42.3 µM	2.57 µM	14.4 µM	1.69 µM	17.5 µM	7.34 µM	41.2 µM	12.3 µM	> 67.7 µM	11.8 µM	26.4 µM
N#CC(C(=O)O)C(c1c(Cl)cccc1Cl)C(C#N)C(=O)O (stereo not drawn)		> 100 µM		> 100 µM		> 100 µM		> 100 µM		> 100 µM		> 100 µM		> 100 µM		> 100 µM		> 100 µM		> 100 µM
CCCc1n(Cc2ccc3ccccc3n2)cc[n+]1Cc1ccc2ccccc2c1	1.88 µM	11.8 µM	0.479 µM	10.6 µM	0.861 µM	10.4 µM	0.38 µM	2.54 µM	0.452 µM	1.96 µM	0.472 µM	3.03 µM	0.708 µM	6.08 µM	2.16 µM	14.9 µM	1.21 µM	2.81 µM	1.07 µM	2.95 µM
Cc1ccc(-n2c3c(c4c(CN)c(O)ccc42)CCc2ccccc2C3=O)cc1	18.7 µM	35.8 µM	14.1 µM	28.5 µM	16.6 µM	36.1 µM	17.2 µM	32.5 µM	10.2 µM	22.3 µM	2.33 µM	5.38 µM	2.33 µM	6.51 µM	12.4 µM	28.5 µM	13.3 µM	26.3 µM	16.3 µM	32.2 µM
COC(=O)C1=C(O)c2cc3c(cc2[C@H](c2cc(OC)c(OC)c(OC)c2)C1)OCO3		> 100 µM		> 100 µM		> 100 µM		> 100 µM		55.7 µM		> 100 µM		89.6 µM				> 100 µM		> 100 µM
C=C(C)[C@@H]1CC[C@]2(CN)CC[C@]3(C)[C@H](CC[C@@H]4[C@@]5(C)CCC(N)[C@@](C)(CO)[C@@H]5CC[C@]43C)[C@@H]12 (stereo partly drawn)	1.73 µM	3.27 µM	1.96 µM	3.61 µM	1.79 µM	3.26 µM	1.61 µM	3.01 µM	1.96 µM	3.57 µM	1.53 µM	3.63 µM	1.7 µM	3.58 µM	1.55 µM	3.05 µM	1.75 µM	3.22 µM	1.64 µM	3.1 µM
C[C@@]1(O)CCC[C@H]1n1c(=O)c(C(F)F)cc2cnc(NC3CCN(S(C)(=O)=O)CC3)nc21	1.66 µM	> 100 µM	1.43 µM	6.69 µM	1.17 µM	3.45 µM	1.67 µM	> 100 µM			1.96 µM	> 100 µM			1.75 µM	5.92 µM	1.21 µM	> 100 µM	1.28 µM	> 100 µM
CC1(C)OC2COC(c3[nH]nc4c(=O)[nH]c(=O)[nH]c34)C2O1 (stereo not drawn)		> 100 µM		> 100 µM		> 100 µM		> 100 µM		> 100 µM		> 100 µM		> 100 µM		> 100 µM		> 100 µM		> 100 µM
CCCCCCCCCCCCC(NC(C)=O)(C(=O)OCC)C(=O)OCC	14.3 µM	32.5 µM	10.8 µM	24.8 µM	16 µM	33.1 µM	12.4 µM	28.5 µM	11.7 µM	25.4 µM	6.94 µM	48.2 µM	18.2 µM	62.4 µM	6.99 µM	26.1 µM			11.8 µM	25.2 µM
CCCCCCC/C=C1\CCC(CN(C)C)C1=O (stereo not drawn)		50 µM		32.7 µM		32.7 µM		32.1 µM		18 µM		9.17 µM		7 µM		22.8 µM		16.5 µM		15 µM
CCN(CC)/[N+]([O-])=N/OCC(C)O (stereo not drawn)		> 100 µM		> 100 µM		> 100 µM		> 100 µM		> 100 µM		> 100 µM		> 100 µM		> 100 µM		> 100 µM		> 100 µM
COc1cc2c(cc1OC)-c1ncc3cc(OC)c(OC)c(OC)c3c1C2	32.1 µM	> 100 µM			14 µM	34 µM	36.8 µM	> 100 µM	15.9 µM	43.9 µM	11 µM	39.8 µM			22.8 µM	90.1 µM	27.7 µM	> 100 µM	16.8 µM	35.8 µM
COC(=O)CCCNC(=O)C(=O)c1c(O)c(O)c(C(C)C)c2cc(C)c(-c3c(C)cc4c(C(C)C)c(O)c(O)c(C(=O)C(=O)NCCCC(=O)OC)c4c3O)c(O)c12	0.255 µM	4.01 µM	0.363 µM	6.03 µM	0.997 µM	5.17 µM	0.298 µM	2.31 µM	0.32 µM	3.46 µM	0.706 µM	3.17 µM			0.317 µM	3.79 µM	0.34 µM	2.73 µM	0.537 µM	1.48 µM
O=C(CC1SC(=Nc2ccccc2Cl)NC1=O)Nc1ccc(Cl)cc1 (stereo not drawn)		> 100 µM		> 100 µM		> 100 µM		> 100 µM				69.9 µM				> 100 µM		> 100 µM		> 100 µM
CCOC(=O)NC(=O)c1cn(C2OC(COC(=O)CCCCCCCCC(=O)OCC3OC(n4cc(C(=O)NC(=O)OCC)c(=O)[nH]c4=O)C4OC(C)(C)OC34)C3OC(C)(C)OC32)c(=O)[nH]c1=O (stereo not drawn)		> 100 µM		> 100 µM		> 100 µM				> 100 µM		> 100 µM		> 100 µM		> 100 µM		> 100 µM		> 100 µM
CC(=O)Oc1cc(Cl)c(OC(C)=O)c2c(OC(C)=O)c(C)c(O[Si](C)(C)C(C)(C)C)cc12				17.1 µM		27.7 µM		6.78 µM		29.3 µM		19.1 µM		24.8 µM		33.9 µM		17.6 µM		12.9 µM

Source: PubChem BioAssay (NCI)
